From PubChem BioAssay (NCI)
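Five concentrations, 48 hours, 96-well plates. The concentration for 50% growth inhibition is given as GI50. The concentration for full growth arrest is given as TGI.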

Key:
Assay in all cases: growth of human tumour cells (NCI), 48 h
786-0 renal = system: 786-0 renal
A498 renal = system: A498 renal
A549 NSCLC = system: A549 NSCLC
ACHN renal = system: ACHN renal
BT-549 breast = system: BT-549 breast
CAKI-1 renal = system: CAKI-1 renal
CCRF-CEM leukemia = system: CCRF-CEM leukemia
COLO 205 colon = system: COLO 205 colon
DU-145 prostate = system: DU-145 prostate
EKVX NSCLC = system: EKVX NSCLC
HCC-2998 colon = system: HCC-2998 colon
HCT-116 colon = system: HCT-116 colon
HCT-15 colon = system: HCT-15 colon
HL-60(TB) leukemia = system: HL-60(TB) leukemia
HOP-62 NSCLC = system: HOP-62 NSCLC
HOP-92 NSCLC = system: HOP-92 NSCLC
HS 578T breast = system: HS 578T breast
HT29 colon = system: HT29 colon
IGROV1 ovarian = system: IGROV1 ovarian
K-562 leukemia = system: K-562 leukemia
KM12 colon = system: KM12 colon
LOX IMVI melanoma = system: LOX IMVI melanoma
M14 melanoma = system: M14 melanoma
MALME-3M melanoma = system: MALME-3M melanoma
MCF7 breast = system: MCF7 breast
MDA-MB-231 breast = system: MDA-MB-231 breast
MDA-MB-435 = system: MDA-MB-435
MDA-MB-468 breast = system: MDA-MB-468 breast
MOLT-4 leukemia = system: MOLT-4 leukemia
NCI-H226 lung = system: NCI-H226 lung
NCI-H23 lung = system: NCI-H23 lung
NCI-H460 lung = system: NCI-H460 lung
NCI-H522 lung = system: NCI-H522 lung
NCI/ADR-RES ovarian = system: NCI/ADR-RES ovarian
OVCAR-3 ovarian = system: OVCAR-3 ovarian
OVCAR-4 ovarian = system: OVCAR-4 ovarian
OVCAR-5 ovarian = system: OVCAR-5 ovarian
OVCAR-8 ovarian = system: OVCAR-8 ovarian
PC-3 prostate = system: PC-3 prostate
RPMI-8226 leukemia = system: RPMI-8226 leukemia
RXF 393 renal = system: RXF 393 renal
SF-268 CNS = system: SF-268 CNS
SF-295 CNS = system: SF-295 CNS
SF-539 CNS = system: SF-539 CNS
SK-MEL-2 melanoma = system: SK-MEL-2 melanoma
SK-MEL-28 melanoma = system: SK-MEL-28 melanoma
SK-MEL-5 melanoma = system: SK-MEL-5 melanoma
SK-OV-3 ovarian = system: SK-OV-3 ovarian
SN12C renal = system: SN12C renal
SNB-19 CNS = system: SNB-19 CNS
SNB-75 CNS = system: SNB-75 CNS
SW-620 colon = system: SW-620 colon
T-47D breast = system: T-47D breast
TK-10 renal = system: TK-10 renal
U251 CNS = system: U251 CNS
UACC-257 melanoma = system: UACC-257 melanoma
UACC-62 melanoma = system: UACC-62 melanoma
UO-31 renal = system: UO-31 renal

Work on Cc1ccccc1[C@H]1C(C(=O)c2ccc(Cl)cc2)C2(N[C@@H]1c1ccccc1)C(=O)Nc1ccccc12 (stereo partly specified) yielded a GI50 (786-0 renal) of 6.9 µM, a TGI (786-0 renal) of 16.3 µM and a GI50 (A498 renal) of 6.77 µM. For the same molecule, the TGI (A498 renal) was 12.9 µM, the GI50 (A549 NSCLC) was 5.81 µM and the TGI (A549 NSCLC) was 20.4 µM. It also gave a GI50 (ACHN renal) of 6.46 µM, a TGI (ACHN renal) of 14.8 µM and a GI50 (BT-549 breast) of 5.47 µM. For the same molecule, the TGI (BT-549 breast) was 11 µM, the GI50 (CAKI-1 renal) was 3.62 µM and the TGI (CAKI-1 renal) was 11.6 µM. For the same molecule, the GI50 (CCRF-CEM leukemia) was 4.8 µM, the TGI (CCRF-CEM leukemia) was 26.8 µM and the GI50 (COLO 205 colon) was 7.31 µM. The TGI (COLO 205 colon) was 13.8 µM, the GI50 (DU-145 prostate) was 4.91 µM and the TGI (DU-145 prostate) was 12.8 µM. For the same molecule, the GI50 (EKVX NSCLC) was 4.96 µM, the TGI (EKVX NSCLC) was 17.2 µM and the GI50 (HCC-2998 colon) was 5.95 µM. It also gave a TGI (HCC-2998 colon) of 12.2 µM, a GI50 (HCT-116 colon) of 2.46 µM and a TGI (HCT-116 colon) of 8.7 µM. The GI50 (HCT-15 colon) was 5.11 µM, the TGI (HCT-15 colon) was 14.1 µM and the GI50 (HL-60(TB) leukemia) was 8.01 µM. It also gave a TGI (HL-60(TB) leukemia) of 30.4 µM, a GI50 (HOP-62 NSCLC) of 6.26 µM and a TGI (HOP-62 NSCLC) of 13 µM. It also gave a GI50 (HOP-92 NSCLC) of 2.47 µM, a TGI (HOP-92 NSCLC) of 8.55 µM and a GI50 (HS 578T breast) of 4.76 µM. The TGI (HS 578T breast) was 15.3 µM, the GI50 (HT29 colon) was 3.42 µM and the TGI (HT29 colon) was 11.4 µM. It also gave a GI50 (IGROV1 ovarian) of 5.63 µM, a TGI (IGROV1 ovarian) of 14 µM and a GI50 (K-562 leukemia) of 5.11 µM. It also gave a TGI (K-562 leukemia) of 42.3 µM, a GI50 (KM12 colon) of 6.73 µM and a TGI (KM12 colon) of 16.2 µM. For the same molecule, the GI50 (LOX IMVI melanoma) was 2.51 µM, the TGI (LOX IMVI melanoma) was 7.97 µM and the GI50 (M14 melanoma) was 5.62 µM. It also gave a TGI (M14 melanoma) of 11.7 µM, a GI50 (MALME-3M melanoma) of 6 µM and a TGI (MALME-3M melanoma) of 11.6 µM. For the same molecule, the GI50 (MCF7 breast) was 2.26 µM, the TGI (MCF7 breast) was 12.4 µM and the GI50 (MDA-MB-231 breast) was 4.31 µM. The TGI (MDA-MB-231 breast) was 9.35 µM, the GI50 (MDA-MB-435) was 3.65 µM and the TGI (MDA-MB-435) was 9.28 µM. The GI50 (MDA-MB-468 breast) was 0.957 µM, the TGI (MDA-MB-468 breast) was 2.74 µM and the GI50 (MOLT-4 leukemia) was 4.14 µM. The TGI (MOLT-4 leukemia) was 33 µM, the GI50 (NCI-H226 lung) was 5.91 µM and the TGI (NCI-H226 lung) was 12.1 µM. It also gave a GI50 (NCI-H23 lung) of 5.67 µM, a TGI (NCI-H23 lung) of 12.2 µM and a GI50 (NCI-H460 lung) of 6.15 µM. For the same molecule, the TGI (NCI-H460 lung) was 14.9 µM, the GI50 (NCI-H522 lung) was 4.46 µM and the TGI (NCI-H522 lung) was 11.5 µM. It also gave a GI50 (NCI/ADR-RES ovarian) of 4.41 µM, a TGI (NCI/ADR-RES ovarian) of 10.8 µM and a GI50 (OVCAR-3 ovarian) of 1.64 µM. The TGI (OVCAR-3 ovarian) was 7.17 µM, the GI50 (OVCAR-4 ovarian) was 6.08 µM and the TGI (OVCAR-4 ovarian) was 16.2 µM. The GI50 (OVCAR-5 ovarian) was 4.37 µM, the TGI (OVCAR-5 ovarian) was 9.67 µM and the GI50 (OVCAR-8 ovarian) was 6.05 µM. The TGI (OVCAR-8 ovarian) was 13.4 µM, the GI50 (PC-3 prostate) was 2.08 µM and the TGI (PC-3 prostate) was 10.5 µM. It also gave a GI50 (RPMI-8226 leukemia) of 7.66 µM, a TGI (RPMI-8226 leukemia) of 28.3 µM and a GI50 (RXF 393 renal) of 1.42 µM. It also gave a TGI (RXF 393 renal) of 6.02 µM, a GI50 (SF-268 CNS) of 5.73 µM and a TGI (SF-268 CNS) of 17.1 µM. The GI50 (SF-295 CNS) was 5.3 µM, the TGI (SF-295 CNS) was 13.2 µM and the GI50 (SF-539 CNS) was 6.95 µM. For the same molecule, the TGI (SF-539 CNS) was 13.6 µM, the GI50 (SK-MEL-2 melanoma) was 5.83 µM and the TGI (SK-MEL-2 melanoma) was 12.1 µM. It also gave a GI50 (SK-MEL-28 melanoma) of 5.91 µM, a TGI (SK-MEL-28 melanoma) of 11.7 µM and a GI50 (SK-MEL-5 melanoma) of 5.25 µM. For the same molecule, the TGI (SK-MEL-5 melanoma) was 10.6 µM, the GI50 (SK-OV-3 ovarian) was 7.41 µM and the TGI (SK-OV-3 ovarian) was 31.5 µM. The GI50 (SN12C renal) was 4.92 µM, the TGI (SN12C renal) was 10.1 µM and the GI50 (SNB-19 CNS) was 8.35 µM. The TGI (SNB-19 CNS) was 26.6 µM, the GI50 (SNB-75 CNS) was 2.63 µM and the TGI (SNB-75 CNS) was 14.5 µM. The GI50 (SW-620 colon) was 5.54 µM, the TGI (SW-620 colon) was 13.8 µM and the GI50 (T-47D breast) was 4.91 µM. It also gave a TGI (T-47D breast) of 11.6 µM, a GI50 (TK-10 renal) of 6.86 µM and a TGI (TK-10 renal) of 15.8 µM. For the same molecule, the GI50 (U251 CNS) was 5.56 µM, the TGI (U251 CNS) was 13.1 µM and the GI50 (UACC-257 melanoma) was 5.81 µM. For the same molecule, the TGI (UACC-257 melanoma) was 15.3 µM, the GI50 (UACC-62 melanoma) was 2.78 µM and the TGI (UACC-62 melanoma) was 8.48 µM. For the same molecule, the GI50 (UO-31 renal) was 4.6 µM and the TGI (UO-31 renal) was 10.8 µM.
